Species: Rattus norvegicus
Assay: Open TG-GATES - Regimen: Single
Type: toxicity, organism-based, Sprague-Dawley
Set-up: regimen Single, gender Male, age 6 weeks
Details: in vivo, po, 60 mg/kg, route gavage, dose level Low; for APTT / Bas / Eos / Fbg / Hb / Ht / MCH / MCHC / MCV / Mono / PT / Plat / RBC / Ret / WBC: tissue Blood; for ALP / ALT / CRE / DBIL / GLC / IP / K / LDH / Na / PL / RALB / TBIL / TC / TG / TP / gamma-GTP: tissue Plasma

`CCN(CC)C(=S)SSC(=S)N(CC)CC` gave a TERMINAL_BW (3 h) of 215.7 g, an APTT (3 h) of 20.7 s and a Bas (3 h) of 0%. For the same compound, the Eos (3 h) was 0.6%, the Fbg (3 h) was 298.2 mg/dL and the Hb (3 h) was 12.9 g/dL. For the same compound, the Ht (3 h) was 39.9%, the MCH (3 h) was 20.2 pg and the MCHC (3 h) was 32.3%. It also gave an MCV (3 h) of 62.6 fL, a Mono (3 h) of 3.6% and a PT (3 h) of 16.3 s. For the same compound, the Plat (3 h) was 128.9 x10_4/uL, the RBC (3 h) was 638.2 x10_4/ul and the Ret (3 h) was 8.8%. The WBC (3 h) was 84.6 x10_2/uL, the ALP (3 h) was 1871.6 IU/L and the ALT (3 h) was 41.6 IU/L. It also gave a CRE (3 h) of 0.1 mg/dL, a DBIL (3 h) of 0.002 mg/dL and a GLC (3 h) of 178.2 mg/dL. For the same compound, the IP (3 h) was 8.8 mg/dL, the K (3 h) was 4.1 meq/L and the LDH (3 h) was 188.6 IU/L. It also gave a Na (3 h) of 141.4 meq/L, a PL (3 h) of 128.6 mg/dL and an RALB (3 h) of 3.2 g/dL. The TBIL (3 h) was 0.016 mg/dL, the TC (3 h) was 71 mg/dL and the TG (3 h) was 70 mg/dL. It also gave a TP (3 h) of 5.5 g/dL, a gamma-GTP (3 h) of 1.4 IU/L and a TERMINAL_BW (6 h) of 211.5 g. It also gave an APTT (6 h) of 23.2 s, a Bas (6 h) of 0% and an Eos (6 h) of 0.8%. For the same compound, the Fbg (6 h) was 293 mg/dL, the Hb (6 h) was 13.2 g/dL and the Ht (6 h) was 40.9%. For the same compound, the MCH (6 h) was 20.3 pg, the MCHC (6 h) was 32.4% and the MCV (6 h) was 62.6 fL. For the same compound, the Mono (6 h) was 3.4%, the PT (6 h) was 16.3 s and the Plat (6 h) was 125.2 x10_4/uL. For the same compound, the RBC (6 h) was 653.8 x10_4/ul, the Ret (6 h) was 7.3% and the WBC (6 h) was 99 x10_2/uL. The ALP (6 h) was 1256.6 IU/L, the ALT (6 h) was 36.4 IU/L and the CRE (6 h) was 0.1 mg/dL. The DBIL (6 h) was 0 mg/dL, the GLC (6 h) was 179 mg/dL and the IP (6 h) was 9.1 mg/dL. The K (6 h) was 4.3 meq/L, the LDH (6 h) was 181.8 IU/L and the Na (6 h) was 141.6 meq/L. The PL (6 h) was 125.2 mg/dL, the RALB (6 h) was 3 g/dL and the TBIL (6 h) was 0.008 mg/dL. For the same compound, the TC (6 h) was 68.6 mg/dL, the TG (6 h) was 59.2 mg/dL and the TP (6 h) was 5.3 g/dL. It also gave a gamma-GTP (6 h) of 1 IU/L, a TERMINAL_BW (9 h) of 210.6 g and an APTT (9 h) of 23 s. The Bas (9 h) was 0%, the Eos (9 h) was 0.2% and the Fbg (9 h) was 307.2 mg/dL. For the same compound, the Hb (9 h) was 13.1 g/dL, the Ht (9 h) was 40.1% and the MCH (9 h) was 20.2 pg. It also gave an MCHC (9 h) of 32.5%, an MCV (9 h) of 62.3 fL and a Mono (9 h) of 2.6%. The PT (9 h) was 15.8 s, the Plat (9 h) was 121 x10_4/uL and the RBC (9 h) was 645 x10_4/ul. It also gave a Ret (9 h) of 7.5%, a WBC (9 h) of 93.7 x10_2/uL and an ALP (9 h) of 1515 IU/L. The ALT (9 h) was 32.8 IU/L, the CRE (9 h) was 0.1 mg/dL and the DBIL (9 h) was 0.002 mg/dL. It also gave a GLC (9 h) of 188.8 mg/dL, an IP (9 h) of 9.6 mg/dL and a K (9 h) of 4.1 meq/L. The LDH (9 h) was 160.4 IU/L, the Na (9 h) was 141.2 meq/L and the PL (9 h) was 149.4 mg/dL. For the same compound, the RALB (9 h) was 3.1 g/dL, the TBIL (9 h) was 0.018 mg/dL and the TC (9 h) was 81.6 mg/dL. For the same compound, the TG (9 h) was 99 mg/dL, the TP (9 h) was 5.5 g/dL and the gamma-GTP (9 h) was 1 IU/L. For the same compound, the TERMINAL_BW (24 h) was 213.4 g, the APTT (24 h) was 21.8 s and the Bas (24 h) was 0%. The Eos (24 h) was 0.4%, the Fbg (24 h) was 274.6 mg/dL and the Hb (24 h) was 12.6 g/dL. For the same compound, the Ht (24 h) was 39%, the MCH (24 h) was 20.3 pg and the MCHC (24 h) was 32.3%. For the same compound, the MCV (24 h) was 62.9 fL, the Mono (24 h) was 2% and the PT (24 h) was 16.6 s. For the same compound, the Plat (24 h) was 117.1 x10_4/uL, the RBC (24 h) was 620.4 x10_4/ul and the Ret (24 h) was 7%. For the same compound, the WBC (24 h) was 124.3 x10_2/uL, the ALP (24 h) was 1307.4 IU/L and the ALT (24 h) was 33.8 IU/L. It also gave a CRE (24 h) of 0.2 mg/dL, a DBIL (24 h) of 0 mg/dL and a GLC (24 h) of 178 mg/dL. For the same compound, the IP (24 h) was 6.5 mg/dL, the K (24 h) was 4.3 meq/L and the LDH (24 h) was 187.8 IU/L. For the same compound, the Na (24 h) was 141.4 meq/L, the PL (24 h) was 128.2 mg/dL and the RALB (24 h) was 2.8 g/dL. It also gave a TBIL (24 h) of 0.006 mg/dL, a TC (24 h) of 74.6 mg/dL and a TG (24 h) of 98 mg/dL. The TP (24 h) was 5.1 g/dL and the gamma-GTP (24 h) was 1 IU/L.

— ChEMBL document CHEMBL3885861, “Open TG-GATES”
